Test results reported in PubChem BioAssay (NCI).
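Following 48 hours of exposure in 96-well plates, responses at five concentrations were used to interpolate endpoints linearly. TGI: total growth inhibition.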

Experiments:
Assay in all cases: NCI tumour cell line growth inhibition, 48 h
SK-MEL-5 melanoma = tested on: SK-MEL-5 melanoma
OVCAR-8 ovarian = tested on: OVCAR-8 ovarian
CAKI-1 renal = tested on: CAKI-1 renal
NCI-H460 lung = tested on: NCI-H460 lung
LOX IMVI melanoma = tested on: LOX IMVI melanoma
K-562 leukemia = tested on: K-562 leukemia
SK-OV-3 ovarian = tested on: SK-OV-3 ovarian
SNB-75 CNS = tested on: SNB-75 CNS
A549 NSCLC = tested on: A549 NSCLC
CCRF-CEM leukemia = tested on: CCRF-CEM leukemia
OVCAR-4 ovarian = tested on: OVCAR-4 ovarian
M14 melanoma = tested on: M14 melanoma
NCI-H23 lung = tested on: NCI-H23 lung
HCC-2998 colon = tested on: HCC-2998 colon
MOLT-4 leukemia = tested on: MOLT-4 leukemia
HL-60(TB) leukemia = tested on: HL-60(TB) leukemia
ACHN renal = tested on: ACHN renal
SF-539 CNS = tested on: SF-539 CNS
A498 renal = tested on: A498 renal

SMILES	TGI (SK-MEL-5 melanoma) [µM]	TGI (OVCAR-8 ovarian) [µM]	TGI (CAKI-1 renal) [µM]	TGI (NCI-H460 lung) [µM]	TGI (LOX IMVI melanoma) [µM]	TGI (K-562 leukemia) [µM]	TGI (SK-OV-3 ovarian) [µM]	TGI (SNB-75 CNS) [µM]	TGI (A549 NSCLC) [µM]	TGI (CCRF-CEM leukemia) [µM]	TGI (OVCAR-4 ovarian) [µM]	TGI (M14 melanoma) [µM]	TGI (NCI-H23 lung) [µM]	TGI (HCC-2998 colon) [µM]	TGI (MOLT-4 leukemia) [µM]	TGI (HL-60(TB) leukemia) [µM]	TGI (ACHN renal) [µM]	TGI (SF-539 CNS) [µM]	TGI (A498 renal) [µM]
COC(=O)[C@H](Cc1c[nH]c2ccccc12)NP(=O)(O)OC[C@H]1O[C@@H](n2cc(C)c(=O)[nH]c2=O)C[C@@H]1N=[N+]=[N-]	> 100	> 100	> 100	> 100	> 100	> 100	> 100	> 100	> 100	> 100	> 100	> 100	> 100	> 100	> 100	> 100			
O=c1c2ccccc2nc2n1-c1ccccc1SC2	86.9	> 100	> 100	> 100	> 100	> 100	> 100	56.2	> 100	> 100	> 100	> 100	> 100	> 100	75.3		> 100	> 100	> 100
CC1=NNC(=O)C1C1CC(c2c[nH]c3ccccc23)=NN(C(N)=O)C1=O (centres undefined)	> 100	> 100	> 100	> 100	> 100	> 100	> 100	> 100	> 100	> 100		> 100	> 100		> 100	> 100	> 100	> 100	> 100
O=C1NC(=O)C(C(=O)C(=O)Nc2ccc(Cl)cc2Cl)C(=O)N1	> 100	> 100	> 100	> 100		> 100	> 100		> 100	> 100	> 100	> 100		> 100	> 100	> 100	> 100		> 100
O=C1/C(=C/c2ccco2)N=C2Sc3c(nc[nH]c3=O)N12	> 100	> 100	> 100		> 100	> 100	> 100	> 100	> 100	> 100	> 100	> 100	> 100		> 100	> 100	> 100	> 100	> 100
COc1ccc2[nH]cc(C(=O)C(=O)NC34CC5CC(CC(C5)C3)C4)c2c1	> 100	> 100	> 100	91.3	> 100	37.6	> 100	> 73	> 100	29.9	> 100	> 100	> 100	> 100	16.6		> 100	> 81.1	> 76.1
O=C(c1nc2ccccc2[nH]c1=O)C(O)c1ccco1 (centres undefined)	> 100	> 100		> 100	> 100	> 100	> 100	> 100	> 100	> 100	> 100	> 100	> 100	> 100	> 100	> 100	> 100	> 100	
O=C(CCCN1CCC2(CC1)CC(=O)N(N1CCOCC1)C2=O)c1ccc(F)cc1	> 100	> 100	> 100	> 100	> 100	> 100	> 100	> 100	> 100	> 100		> 100	> 100		> 100	> 100	> 100	> 100	> 100
O=C1CC2(CCC3=C(O2)c2ccccc2NC(=O)C3)C(=O)c2ccccc2N1 (centres undefined)	> 100	> 100		> 100	> 100	> 100		> 100	> 100	> 100	> 100	> 100	> 100		> 100	> 100	> 100	> 100	
N#Cc1ccc(N2CCOCC2)cc1	> 100	> 100	> 100	> 100	> 100		> 100	> 100	> 100	> 100	> 100	> 100	> 100		> 100	> 100	> 100	> 100	> 100
CCOC(=O)C1C(C)C2(C#N)C(=N)OC1(C)C2(C#N)C#N (centres undefined)	98.5	> 100	> 100		67.1	> 100	> 100	> 100	> 100			> 100	> 100			60.3	> 100	> 100	> 100
O=C(OCc1ccc([N+](=O)[O-])cc1)N1c2ccccc2[C@@]23O[C@]24CCC[C@H]3C#C/C=C\C#C[C@H]14	> 100	> 100	> 100	> 100	> 100	> 100	> 100		> 100	> 100	> 100	> 100	> 100	> 100	> 100	> 100	> 100	> 100	> 100
